Target: glucocorticoid receptor (GR) recombinant ligand binding domain (LBD) (Homo sapiens (Human), UniProt P04150)
Experiment: GR binding fluorescence polarisation (FP) assay
Details: displacement of fluorescently tagged ligand
Experimental: Binding of test compounds to the glucocorticoid receptor (GR) is determined using a fluorescence polarisation (FP) assay utilising a recombinant ligand binding domain (LBD) of GR. The test compounds are assessed by their ability to displace a fluorescently tagged ligand and detection of the resulting decrease in fluorescence polarisation.

Sequence of glucocorticoid receptor (GR) recombinant ligand binding domain (LBD) (P04150 524-758): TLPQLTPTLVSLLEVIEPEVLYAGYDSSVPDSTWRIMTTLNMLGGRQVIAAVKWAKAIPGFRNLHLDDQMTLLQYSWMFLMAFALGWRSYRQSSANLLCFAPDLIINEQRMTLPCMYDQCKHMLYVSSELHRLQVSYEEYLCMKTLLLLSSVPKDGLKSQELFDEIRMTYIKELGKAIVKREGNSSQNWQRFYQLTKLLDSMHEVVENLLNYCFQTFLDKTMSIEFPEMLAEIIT

Row | IC50 | Structure (SMILES)
1 | 0.27 µM | CCCS(=O)(=O)N1CCN(c2ccc3c(cnn3-c3ccc(F)cc3)c2)C[C@H]1C [Example 104, (R)-1-(4-fluorophenyl)-5-(3-methyl-4-(propylsulfonyl)piperazin-1-yl)-1H-indazole]
2 | 0.32 µM | CS(=O)(=O)N[C@H]1CCN(c2ccc3c(cnn3-c3ccc(F)cc3)c2)C1 [Example 105]
3 | 0.009 µM | Cc1cc2c(cnn2-c2ccc(F)cc2)cc1N1CCC(NS(C)(=O)=O)CC1 [Example 106]
4 | 0.003 µM | CCCn1cc(S(=O)(=O)NC2CCN(c3cc4cnn(-c5ccc(F)cc5)c4cc3C)CC2)cn1 [Example 107]
5 | 0.007 µM | Cc1cc2c(cnn2-c2ccc(F)cc2)cc1N1CC[C@H](NS(C)(=O)=O)C1 [Example 108]
6 | 0.048 µM | Cc1cc2c(cnn2-c2ccc(F)cc2)cc1N1CC[C@@H](NS(C)(=O)=O)C1 [Example 109]
7 | 0.046 µM | Cc1cc2c(cnn2-c2ccc(F)cc2)cc1N1CC[C@@H](NS(=O)(=O)c2cnn(C)c2)C1 [Example 110]
8 | 0.003 µM | Cc1cc2c(cnn2-c2ccc(F)cc2)cc1N1CC[C@H](NS(=O)(=O)c2cnn(C)c2)C1 [Example 111]
9 | 0.249 µM | Cc1cc2c(cnn2-c2ccc(F)cc2)cc1N1CC[C@H](N(C)S(C)(=O)=O)C1 [Example 112]
10 | 0.052 µM | Cc1cc2c(cnn2-c2ccc(F)cc2)cc1N1CC[C@@H](N(C)S(C)(=O)=O)C1 [Example 113]
11 | 0.304 µM | Cc1cc2c(cnn2-c2ccc(F)cc2)cc1N1CC[C@H](N(C)S(=O)(=O)c2cnn(C)c2)C1 [Example 114]
12 | 0.021 µM | Cc1cc2c(cnn2-c2ccc(F)cc2)cc1N1CC[C@@H](N(C)S(=O)(=O)c2cnn(C)c2)C1 [Example 115]
13 | 0.072 µM | Cc1cc2c(cnn2-c2ccc(F)cc2)cc1N1CCC(N(C)S(C)(=O)=O)CC1 [Example 116]
14 | 0.057 µM | CCCn1cc(S(=O)(=O)N(C)C2CCN(c3cc4cnn(-c5ccc(F)cc5)c4cc3C)CC2)cn1 [Example 117]
15 | 0.208 µM | CCCn1cc(S(=O)(=O)N(C)[C@H]2CCCN(c3cc4cnn(-c5ccc(F)cc5)c4cc3C)C2)cn1 [Example 125]
16 | 0.19 µM | Cc1cc2c(cnn2-c2ccc(F)cc2)cc1N1CCCC(N(C)S(C)(=O)=O)C1 (centres unmarked) [Example 126]
17 | 0.174 µM | Cc1cc2c(cnn2-c2ccc(F)cc2)cc1N1CCCC(N(C)S(=O)(=O)c2cnn(C)c2)C1 (centres unmarked) [Example 127]
18 | 0.59 µM | CCCn1cc(S(=O)(=O)N(C)C2CCCN(c3cc4cnn(-c5ccc(F)cc5)c4cc3C)C2)cn1 (centres unmarked) [Example 128]
19 | 3.38 µM | CS(=O)(=O)N1CCC(c2ccc3c(cnn3-c3ccc(F)cc3)c2)CC1 [Example 134]
20 | 0.473 µM | CCCn1cc(S(=O)(=O)N2CCC(c3ccc4c(cnn4-c4ccc(F)cc4)c3)CC2)cn1 [Example 135]
21 | 0.102 µM | Cc1cc2c(cnn2-c2ccc(F)cc2)cc1C1CCN(S(C)(=O)=O)CC1 [Example 136]
22 | 0.308 µM | CCCn1cc(S(=O)(=O)N2CC=C(c3ccc4c(cnn4-c4ccc(F)cc4)c3)CC2)cn1 [Example 137]
23 | 0.101 µM | Cc1cc2c(cnn2-c2ccc(F)cc2)cc1C1=CCN(S(C)(=O)=O)CC1 [Example 138]
24 | 0.218 µM | CCCn1cc(S(=O)(=O)N2CC=C(c3cc4cnn(-c5ccc(F)cc5)c4cc3C)CC2)cn1 [Example 139]
25 | 3.9 µM | CCCn1cc(S(=O)(=O)N2CCN(c3cc4cnn(-c5ccc(F)cc5)c4cc3C)C(=O)C2)cn1 [Example 209, 1-(1-(4-fluorophenyl)-6-methyl-1H-indazol-5-yl)-4-((1-propyl-1H-pyrazol-4-yl)sulfonyl)piperazin-2-one]
26 | 0.39 µM | Cc1cc2c(cnn2-c2ccc(F)cc2)cc1C1(COCc2ccccc2)CCN(S(=O)(=O)c2cnn(C)c2)C1 (centres unmarked) [Example 341, 5-(3-((benzyloxy)methyl)-1-((1-methyl-1H-pyrazol-4-yl)sulfonyl)pyrrolidin-3-yl)-1-(4-fluorophenyl)-6-methyl-1H-indazole]

System: induction of TAT by dexamethasone in HepG2 cells
Experiment: Hep G2 TAT assay (inhibition of dexamethasone-induced TAT)
Format: cell-based, human
Details: challenge of 100 nM dexamethasone, IC50 converted to Ki by Cheng and Prusoff equation
Experimental: Glucocorticoid mediated activation of TAT occurs by transactivation of glucocorticoid response elements in the TAT promoter by glucocorticoid receptor-agonist complex. The following protocol describes an assay for measuring induction of TAT by dexamethasone in HepG2 cells (a human liver hepatocellular carcinoma cell line; ECACC, UK).
TAT activity was measured as outlined in the literature by A. Ah et al., J. Med. Chem., 2004, 47, 2441-2452.
HepG2 cells were cultured using MEME media supplemented with 10% (v/v) foetal bovine serum; 2 mM L-glutamine and 1% (v/v) NEAA at 37° C., 5%/95% (v/v) CO2/air. The HepG2 cells were counted and adjusted to yield a density of 0.125×10^6 cells/ml in RPMI 1640 without phenol red, 10% (v/v) charcoal stripped FBS, 2 mM L-glutamine and seeded at 25,000 cells/well in 200 μl into 96 well, sterile, tissue culture micro titre plates, and incubated at 37° C., 5% CO2 for 24 hours
Growth media was removed and replaced with assay media {RPMI 1640 without phenol red, 2 mM L-glutamine+10 μM forskolin}. Test compounds were screened against a challenge of 100 nM dexamethasone. Compounds were serially half log diluted in 100% (v/v) dimethylsulphoxide from a 10 mM stock.
Test compounds were pre-incubated with cells in micro-titre plates for 30 minutes at 37° C., 5/95 (v/v) CO2/air, before the addition of 100 nM dexamethasone and then subsequently for 20 hours to allow optimal TAT induction.
HepG2 cells were then lysed with 30 μl of cell lysis buffer containing a protease inhibitor cocktail for 15 minutes at 4° C. […] After 2 hours incubation at 37° C. the reaction was terminated by the addition of 15 μl of 10M aqueous potassium hydroxide solution, and the plates incubated for a further 30 minutes at 37° C. The TAT activity product was measured by absorbance at λ 340 nm.
[compound] and fitting the data to a 4 parameter logistic equation. IC50 values were converted to Ki (equilibrium dissociation constant) using the Cheng and Prusoff equation, assuming the antagonists were competitive inhibitors with respect to dexamethasone.

Row | Structure (SMILES) | Ki
27 | Cc1cc2c(cnn2-c2ccc(F)cc2)cc1C1(Cc2ccccc2)CCN(C(=O)c2cnn(C)c2)C1 (centres unmarked) [Example 19, (3-benzyl-3-(1-(4-fluorophenyl)-6-methyl-1H-indazol-5-yl)pyrrolidin-1-yl)(1-methyl-1H-pyrazol-4-yl)methanone] | 0.142 µM
28 | CCCn1cc(S(=O)(=O)N2CCC(c3cc4cnn(-c5ccc(F)cc5)c4cc3C)C(C)C2)cn1 (centres unmarked) [Example 26, 1-(4-fluorophenyl)-6-methyl-5-(3-methyl-1-((1-propyl-1H-pyrazol-4-yl)sulfonyl)piperidin-4-yl)-1H-indazole] | 0.05 µM
29 | CCCn1cc(S(=O)(=O)N2CCC3(c4cc5cnn(-c6ccc(F)cc6)c5cc4C)C(C2)C3(F)F)cn1 (centres unmarked) [Example 27, 5-(7,7-difluoro-3-((1-propyl-1H-pyrazol-4-yl)sulfonyl)-3-azabicyclo[4.1.0]heptan-6-yl)-1-(4-fluorophenyl)-6-methyl-1H-indazole] | 0.759 µM
30 | CCCn1cc(N(C)S(=O)(=O)C2CCN(c3cc4cnn(-c5ccc(F)cc5)c4cc3C)C2)cn1 (centres unmarked) [Example 30, 1-(1-(4-fluorophenyl)-6-methyl-1H-indazol-5-yl)-N-methyl-N-(1-propyl-1H-pyrazol-4-yl)pyrrolidine-3-sulfonamide] | 0.206 µM
31 | COCCn1cc(S(=O)(=O)N2CCN(c3cc4cnn(-c5ccc(F)cc5)c4cc3C)CC23CC3)cn1 [Example 78] | 0.07 µM
32 | Cc1cc2c(cnn2-c2ccc(F)cc2)cc1N1CCN(S(=O)(=O)c2cnn(C3CCOC3)c2)C2(CC2)C1 (centres unmarked) [Example 79] | 0.084 µM
33 | CCCn1cc(S(=O)(=O)N2CCN(c3cc(C)c4c(cnn4-c4ccc(F)cc4)c3)CC23CC3)cn1 [Example 80] | 0.536 µM
34 | CCCn1cc(S(=O)(=O)N2C[C@H](C)N(c3cc4cnn(-c5ccc(F)cc5)c4cc3C)C[C@@H]2C)cn1 [Example 81] | 0.058 µM
35 | CCCn1cc(S(=O)(=O)N2C[C@H](C)N(c3cc4cnn(-c5ccc(F)cc5)c4cc3C)C[C@H]2C)cn1 [Example 82] | 0.065 µM
36 | CCCn1cc(S(=O)(=O)N2CCN(c3cc4cnn(-c5ccc(F)cc5)c4cc3C)[C@@H](C)C2)cn1 [Example 87] | 0.042 µM
37 | Cc1cc2c(cnn2-c2ccc(F)cc2)cc1N1C[C@@H]2CN(S(=O)(=O)c3cnn(C)c3)C[C@@H]2C1 [Example 92] | 0.495 µM
38 | CCCn1cc(S(=O)(=O)N2C[C@H]3CN(c4cc5cnn(-c6ccc(F)cc6)c5cc4C)C[C@H]3C2)cn1 [Example 93] | 0.216 µM
39 | CCCn1cc(S(=O)(=O)N(C)[C@H]2CCN(c3cc4cnn(-c5ccc(F)cc5)c4cc3OC)C2)cn1 [Example 118] | 1.64 µM
40 | CCCn1cc(S(=O)(=O)N(C)C2(C)CCN(c3cc4cnn(-c5ccc(F)cc5)c4cc3C)C2)cn1 (centres unmarked) [Example 119] | 0.251 µM
41 | CCCn1cc(S(=O)(=O)N2CCC(c3cc4cnn(-c5ccc(F)cc5)c4cc3Cl)CC2)cn1 [Example 140] | 0.05 µM
42 | CCCn1cc(S(=O)(=O)N2CC=C(c3cc4cnn(-c5cccc(C(=O)NC6CCOC6)c5)c4cc3C)CC2)cn1 (centres unmarked) [Example 145] | 0.208 µM
43 | Cc1cc2c(cnn2-c2cccc(C(=O)NC3CCOC3)c2)cc1C1=CCN(S(C)(=O)=O)CC1 (centres unmarked) [Example 146] | 0.942 µM
44 | CS(=O)(=O)N1CCC(Cc2ccccc2)(c2ccc3c(cnn3-c3ccc(F)cc3)c2)C1 (centres unmarked) [Example 157] | 0.257 µM
45 | Cn1cc(S(=O)(=O)N2CCC(Cc3ccccc3)(c3ccc4c(cnn4-c4ccc(F)cc4)c3)C2)cn1 (centres unmarked) [Example 158] | 0.161 µM
46 | CCCn1cc(S(=O)(=O)N2CCC(Cc3ccccc3)(c3ccc4c(cnn4-c4ccc(F)cc4)c3)C2)cn1 (centres unmarked) [Example 159] | 0.101 µM
47 | Cc1cc2c(cnn2-c2ccc(F)cc2)cc1C1(Cc2cncs2)CCN(S(=O)(=O)c2cnn(C)c2)C1 (centres unmarked) [Example 179] | 0.331 µM
48 | Cc1cc2c(cnn2-c2ccc(F)cc2)cc1C1(Cc2cncs2)CCN(S(C)(=O)=O)C1 (centres unmarked) [Example 180] | 0.809 µM
49 | CS(=O)(=O)N1CCC(Cc2ccccc2)(c2cc3cnn(-c4ccc(F)cc4)c3cc2F)C1 (centres unmarked) [Example 181] | 0.165 µM
50 | Cc1cc2c(cnn2-c2ccc(F)cc2)cc1C1(Cc2ccc3c(c2)nnn3C)CCN(S(C)(=O)=O)C1 (centres unmarked) [Example 183] | 0.182 µM
51 | C#CCC1(c2cc3cnn(-c4ccc(F)cc4)c3cc2C)CCN(S(C)(=O)=O)C1 (centres unmarked) [Example 184] | 0.252 µM
52 | C#CCC1(c2cc3cnn(-c4ccc(F)cc4)c3cc2C)CCN(S(=O)(=O)c2cnn(C)c2)C1 (centres unmarked) [Example 185] | 0.164 µM
53 | C#CCC1(c2cc3cnn(-c4ccc(F)cc4)c3cc2C)CCN(S(=O)(=O)c2cnn(CCC)c2)C1 (centres unmarked) [Example 186] | 0.037 µM
